Entries after “also recorded” stand apart in the source; their conditions may differ.
Tests used:
[1] = biological target: T1, ATTR amyloid (Transthyretin) (Homo sapiens, UniProt P02766); test: Biotinylated peptide overlay on amyloid-containing tissue sections; type: binding
T1 construct: amyloid-containing tissue sections from patients with AL κ and λ amyloidosis, Alzheimer's disease, Transthyretin amyloidsis (ATTR); from tissue; host or cells: formalin-fixed patient tissue sections
Experimental: (§1) To catalog the range of amyloids that p31 and other peptides may bind, biotinylated peptides using the biotinyl-maleimide adduct which interacts specifically with the solitary Cys residue in the “leader” sequence were prepared. The peptides were overlaid onto formalin-fixed 6 μm-thick amyloid-containing tissue sections, incubated overnight and then the distribution visualized using standard immunohistochemical techniques.

ALECT2 amyloid (Lectin2) = biological target: T2, ALECT2 amyloid (Lectin2) (Homo sapiens, UniProt O14960); test: as above; type: binding
T2 construct: from tissue; host or cells: formalin-fixed patient tissue sections
T2 sequence (O14960 19-151): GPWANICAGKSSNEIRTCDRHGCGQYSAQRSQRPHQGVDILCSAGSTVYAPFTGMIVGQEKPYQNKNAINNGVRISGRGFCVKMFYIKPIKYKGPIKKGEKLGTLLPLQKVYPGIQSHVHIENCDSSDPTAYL
Experimental: as §1

[2] = system: AA amyloid (Serum amyloid protein A); test: as above; type: binding; settings: AA (human and canine)
Experimental: as §1

[3] = biological target: T3, AGal amyloid (Galectin 7) (Homo sapiens, UniProt P47929); test: as above; type: binding
T3 construct: from tissue; host or cells: formalin-fixed patient tissue sections
Experimental: as §1

[4] = biological target: T4, Aβ amyloid (Amyloid β peptide in Alzheimer's disease) (Homo sapiens, UniProt P05067); test: as above; type: binding
T4 construct: Amyloid β peptide in Alzheimer's; from tissue; host or cells: formalin-fixed tissue sections from Alzheimer's disease patients
Experimental: as §1

[5] = system: amyloid deposits in tissues from patients with light chain (AL) amyloidosis, Alzheimer's disease and other forms of amyloidosis; test: Biotinylated peptide overlay on formalin-fixed paraffin embedded patient tissues; type: binding, human; settings: formalin-fixed paraffin embedded tissue sections
Experimental: The reactivity of biotinylated peptide p31 with amyloid deposits in formalin-fixed paraffin embedded tissues from patients with light chain (AL) amyloidosis, or Alzheimer's disease, and other forms of amyloidosis was examined.
as §1

[6] = system: ALκ amyloid (κ light chains); test: Biotinylated peptide overlay on amyloid-containing tissue sections; type: binding, human
Experimental: as §1

[7] = system: AFibα amyloid (Fibrinogen α); test: as above; type: binding, human
Experimental: as §1

[8] = system: ALλ amyloid (λ light chains); test: as above; type: binding, human; settings: overnight incubation, 6 μm-thick sections
Experimental: as §1

ACEOT amyloid (ODAM) = test: as above; type: binding, human
Experimental: as §1

AA amyloid = biological target: T5, AA amyloid (Mus musculus, UniProt P05367); test: In vivo evaluation of radiolabeled peptides in TRIAD AA mouse model: SPECT imaging, biodistribution, autoradiography; settings: for autoradiography: binding to AA amyloid in the necrotic renal papillae in vivo: mouse; for SPECT imaging of 125I-labeled fusion peptides in AA mice versus WT: mice with visceral AA amyloidosis
T5 construct: from tissue; host or cells: living TRIAD mice with systemic peripheral AA amyloidosis
T5 sequence (P05367 20-95 limits assumed): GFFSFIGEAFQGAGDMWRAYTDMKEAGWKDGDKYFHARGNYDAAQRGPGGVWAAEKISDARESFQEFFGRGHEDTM
Experimental: Based on the data obtained with protamines, in the Examples below, peptides that are positively charged are selected. They were labeled with radioiodine (I-125 and I-123) or technetium (Tc-99m) tested for in vivo binding to systemic AA amyloid deposits in the transgenic rapidly inducible amyloid disease (TRIAD) murine model by microSPECT or microPET imaging. The tissue biodistribution of each were assessed by gamma counting and the micro-distribution determined by autoradiography. Further, preliminary examinations were performed of the binding of biotinylated forms of these peptides with formalin-fixed, paraffin-embedded, amyloid-containing tissue sections from patients with AL κ and λ amyloidosis, Alzheimer's disease, Transthyretin amyloidsis (ATTR), serum amyloid protein A amyloidosis (AA), fibrinogen α amyloidosis (AFibα), calcifying epithelium odontogenic tumor amyloid (AODAM), galectin 7 amyloidosis (AGal), and Lect2 amyloidosis (ALECT2).
Two methods of radiolabeling the peptides were employed. For radioiodination, the direct oxidative iodination of tyrosyl groups on the peptides was employed. This method yields product with high specific activity (˜10-20 μCi/μg) of pure ^125I-labeled peptide. The second method involves radiolabeling the peptides with ^99mTc according to the method of Tran et al. (Bioconjugate Chem, 2007, 18, 549-558). The quality of each radiolabeled peptide was assessed by SDS-PAGE (15% poly-acrylamide) analyzed with quantitative phosphor imaging.
Each of the radiolabeled peptides were evaluated for its specific reactivity with amyloids in vivo, using the TRIAD AA mouse model, by using SPECT imaging, biodistribution measurements, and autoradiography. The reactivity of the radiolabeled peptides were assessed in transgenic rapidly inducible amyloid disease (TRIAD) mice with systemic peripheral AA amyloidosis as well as control (amyloid free) mice, by imaging the mice. The reactivity of the peptides were evaluated at 1 hour, 2 hours, 4 hours, 8 hours, 12 hours, or 24 hours post injection of the radiolabeled peptides. […] The other peptides also bound amyloids, but not as well as these.
In a dual-energy imaging experiment, peptide p31 was labeled with Tc^99m and SAP labeled with I^125 and the binding of each radiotracer was examined by using dual-energy microSPECT imaging in an individual TRIAD mouse with AA amyloidosis.
To examine the kinetics of the reactivity of peptides p48, p31, and p31-GGGY, dynamic PET imaging of I^124-labeled peptides p48, p31, p31-GGGY, and p50 (as a control) was performed in TRIAD mice with AA amyloidosis or wild type mice without amyloid. Finally, in a preliminary study, the binding of I^125-labeled SAP and Tc^99m-labeled peptide p31 was compared in the same TRIAD mouse with AA amyloidosis.

ApoA2c amyloid = test: In vivo SPECT/CT imaging, biodistribution and micro-autoradiography in ApoA2c mice; design: species or system mouse; settings: for SPECT/CT uptake in amyloid-laden tissues: 2 or 4 h pi; for biodistribution, tissue-to-muscle ratios, ApoA2c versus WT tissues: mouse, in vivo
Experimental: (§2) The novel peptide, p5R+14, was radiolabeled with ^125I via an oxidation reaction with chloramine T. The labeled peptide was separated from free iodide using size exclusion chromatography on a Sephadex G25 column. For ex vivo amyloid binding assays, the ^125I-labeled p5 and p5R+14 peptides were added to 50 μL of homogenized tissue derived from wild type or amyloid laden ApoA2c mice. After a 1 h incubation, the amount of bound peptide (% of total) was assessed by gamma counting following centrifugation. For in vivo imaging, peptides p5 and p5R+14 were radiolabeled as above, and the radiopurities were determined by using SDS-PAGE and phosphor imaging.
Approximately 200 μCi was injected iv in the lateral tail vein of ApoA2c mice (n=3). SPECT/CT images were acquired using the Inveon Tri-Modality System at 2 or 4 h pi. Organs were harvested and biodistribution of radiotracers was determined and recorded as % injected dose/gram. For comparisons between the peptides, tissue to muscle ratios were used. The tissues were then fixed in formalin, paraffin embedded, sectioned and exposed to photographic emulsion for ˜3 days.

[9] = system: ApoA2c amyloid-laden tissues; test: Ex vivo amyloid binding assay with homogenized tissue of ApoA2c mice; design: species or system mouse; settings: for binding to ApoA2c amyloid-laden tissues in vitro: 125I-labeled, 1 h incubation, gamma counting
Experimental: as §2

AA amyloid deposits = biological target: T6, AA amyloid deposits (Mus musculus, UniProt P05367)
T6 sequence (P05367 20-95 limits assumed): T5 sequence (P05367 20-95 limits assumed)
Experimental: Following radioiodination, ^125I-labeled protamine (^125I-protamine) was administered to animals with severe systemic AA amyloidosis mice or to amyloid-free mice and allowed to circulate for 1 hour, 2 hours, 4 hours, 8 hours or 24 hours. At each time point high-resolution microSPECT/CT images were acquired and the tissue distribution of the radioactivity determined by gamma counting. Finally, 6 μm-thick tissue sections were prepared for autoradiography and histological evaluation of the micro-distribution of the radiolabeled peptides and amyloid deposits, respectively.

T3 sequence (P47929 whole entry): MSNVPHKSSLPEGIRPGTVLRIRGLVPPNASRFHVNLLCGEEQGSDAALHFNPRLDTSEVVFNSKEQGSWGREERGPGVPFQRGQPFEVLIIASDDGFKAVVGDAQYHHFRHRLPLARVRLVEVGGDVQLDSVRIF

**Q.** With “CGGYSKAQKAQAKQAKQAQKAQKAQAKQAKQ (Heparin-binding peptide) [p31]” as the substance, how does the “binding to amyloid in tissue sections” value [1] read?
**A.** Its value is “specifically binds significantly”.

**Q.** And the “binding to amyloid in tissue sections” value (ALECT2 amyloid (Lectin2))?
**A.** The value was “specifically binds significantly”.

**Q.** And the “binding to amyloid in tissue sections” value [2]?
**A.** Its value is “specifically binds significantly”.

**Q.** And the “binding to amyloid in tissue sections” value [3]?
**A.** The value was “specifically binds significantly”.

**Q.** What about the “binding to amyloid in tissue sections” value [4] of the same substance?
**A.** The value was “specifically binds significantly”.

**Q.** What about the “binding of biotinylated peptide to tissue amyloid” value [5] of the same substance?
**A.** Its value is “bound tissue amyloid from these patients with great affinity; also recorded: selectively bound to the amyloids in the tissue section”.

**Q.** And the “binding to amyloid in tissue sections” value [6]?
**A.** The value was “specifically binds significantly”.

**Q.** What about the “binding to amyloid in tissue sections” value [7] of the same substance?
**A.** Its value is “specifically binds significantly”.

**Q.** And the “binding to amyloid in tissue sections” value [8]?
**A.** Its value is “specifically binds significantly”.

**Q.** What about the “binding to amyloid in tissue sections” value (ACEOT amyloid (ODAM)) of the same substance?
**A.** Its value is “specifically binds significantly”.

**Q.** And the “SPECT imaging of AA amyloid compared to SAP” value (AA amyloid; 99mTc-labeled peptide, 125I-labeled SAP, same mouse)?
**A.** The value was “as effective as SAP; also recorded: the same as that for SAP”.

**Q.** What about the “SPECT distribution in AA mouse compared to WT control” value (AA amyloid; 125I-labeled) of the same substance?
**A.** The value was “totally different”.

**Q.** And the “retention on AA amyloid in vivo (SPECT images and biodistribution)” value (AA amyloid; 24 h post-injection)?
**A.** Its value is “remained bound to the AA amyloid in vivo”.

**Q.** What about the “specific amyloid binding, ranking from in vivo imaging studies” value (AA amyloid; TRIAD AA mouse model, 1-24 hours post injection) of the same substance?
**A.** Its value is “best specific amyloid binding reagents”.

**Q.** And the “autoradiography: reactivity with murine pancreatic AA amyloid” value (AA amyloid; compared to SAP)?
**A.** Its value is “greater reactivity with murine pancreatic AA amyloid as compared to SAP”.

**Q.** And the “biodistribution: amount of amyloid bound compared to SAP” value (AA amyloid; mice)?
**A.** The value was “binds more amyloid in vivo”.

**Q.** What about the “autoradiography: binding to AA amyloid in the necrotic renal papillae in vivo” value (AA amyloid) of the same substance?
**A.** Its value is “binds AA amyloid in the necrotic renal papillae”.

**Q.** What does the source list for “GGGYSKAQKAQAKQAKQAQKAQKAQAKQAKQ [p31-GGGY]”?
**A.** uptake of radiotracer in splenic amyloid in vivo (ApoA2c amyloid; ApoA2c mice): no uptake; SPECT/CT uptake in amyloid-laden tissues (ApoA2c amyloid; ApoA2c mice): lack of positive amyloid uptake; micro-autoradiography of tissues (ApoA2c amyloid; ApoA2c mice, listed as 125I-p5): only slight uptake; micro-autoradiography of tissues (ApoA2c amyloid; ApoA2c mice, listed as p5): scant amounts; biodistribution, tissue-to-muscle ratios, ApoA2c versus WT tissues (ApoA2c amyloid): not significantly higher; binding to ApoA2c amyloid-laden tissues in vitro [9]: able to bind

**Q.** Which micro-autoradiography of tissues (ApoA2c amyloid; ApoA2c mice) does the source give for “GGGYSRAQRAQARQARQAQRAQRAQARQARQAQRAQRAQARQARA [p31RGGGY + 14]” here?
**A.** Its micro-autoradiography of tissues is “localized to amyloid within the tissues”.

**Q.** What about the “SPECT/CT uptake in amyloid-laden tissues” value (ApoA2c amyloid; ApoA2c mice, listed as 125I-p5R+14) of the same substance?
**A.** Its value is “uptake of ^125I-p5R+14 in amyloid-laden tissues such as the heart, liver, spleen and intestines; also recorded: cardiac uptake is not part of blood pool clearance”.

**Q.** And the “SPECT/CT uptake in amyloid-laden tissues” value (ApoA2c amyloid; ApoA2c mice, listed as p5R+14)?
**A.** Its value is “bound cardiac amyloid deposits as well as those in the liver, spleen and intestines”.

**Q.** What about the “biodistribution, tissue-to-muscle ratios, ApoA2c versus WT tissues” value (ApoA2c amyloid) of the same substance?
**A.** Its value is “clearly more p5R+14 binding to the diseased tissues”.

**Q.** What about the “binding to ApoA2c amyloid-laden tissues in vitro” value [9] of the same substance?
**A.** Its value is “able to bind”.

**Q.** And the “amount bound compared between p5R+14 and p5” value ([9]; tissues of ApoA2c-amyloid mouse, listed as p5R+14)?
**A.** The value was “bound in greater amounts to all tissue samples as compared to p5; also recorded: higher binding in every tissue of interest”.

**Q.** Which “SPECT imaging of 125I-labeled fusion peptides in AA mice versus WT” value (from here on “SPECT imaging … in AA mice versus WT”) (AA amyloid) does the source give for “GGYSKAQKAQAKQAKQAQKAQKAQAKQAKQGGTFFYGGSRGKRNNFKTEEY [WAL14465]” here?
**A.** Its value is “retained by the amyloid deposits in the liver spleen and kidneys”.

**Q.** Which “SPECT imaging … in AA mice versus WT” value (AA amyloid) does the source give for “RRLSYSRRRFCGGYSKAQKAQAKQA KQAQKAQKAQAKQAKQ (RRLSYSRRRFCGGYSKAQKAQAKQAKQAQKAQKAQAKQAKQ) [Syb3-p31, fusion of p31 with cell penetrating peptide]” here?
**A.** Its value is “retained by the amyloid deposits in the liver spleen and kidneys”.

**Q.** How did the “autoradiography: binding to AA amyloid in the necrotic renal papillae in vivo” value (AA amyloid) turn out when “SAP: Serum amyloid P component, the gold standard amyloid imaging agent; decameric, Mw ~250 kD [reference compound]” was run?
**A.** Its value is “does not”.

**Q.** How did the “SPECT imaging … in AA mice versus WT” value (AA amyloid) turn out when “YGRKKRRQRRRCGGYSKAQKAQAKQAKQAQKAQKAQAKQAKQ [TAT-p31, fusion of p31 with cell penetrating peptide]” was run?
**A.** The value was “retained by the amyloid deposits in the liver spleen and kidneys”.

**Q.** What does the source list for protamine?
**A.** microSPECT distribution in AA mice (AA amyloid deposits; AA mice): sequestered by amyloid deposits in the liver, kidney, pancreas and spleen; micro-autoradiography association with amyloid (AA amyloid deposits; AA mice, notably liver): preferentially associated with the AA amyloid; accumulation in organs or tissues of amyloid-free mice (AA amyloid deposits; amyloid-free mice): little or no specific accumulation; calculated tissue:muscle ratios, mice with AA versus amyloid-free mice (AA amyloid deposits; liver, kidney, pancreas, spleen, stomach, gamma counting): at least 2 fold; fate of radiolabel in control mice (AA amyloid deposits; mouse, in vivo): rapidly dehalogenated
